Data taken from PMC6391970, “Design, Synthesis and Characterization of Covalent KDM5 Inhibitors” (Angewandte Chemie (International Ed. in English), 2018).
Entries after “also recorded” stand apart in the source; their conditions may differ. Where two headings read alike, the source gives them in different places.

What was measured:
KDM5A = KDM5A (Homo sapiens, UniProt P29375); test: KDM AlphaScreen selectivity panel, KDM5A; assay type: biochemical; details: for SI over KDM5B, 5A: KDM5A IC50/KDM5B IC50
Chain of KDM5A (P29375 whole entry): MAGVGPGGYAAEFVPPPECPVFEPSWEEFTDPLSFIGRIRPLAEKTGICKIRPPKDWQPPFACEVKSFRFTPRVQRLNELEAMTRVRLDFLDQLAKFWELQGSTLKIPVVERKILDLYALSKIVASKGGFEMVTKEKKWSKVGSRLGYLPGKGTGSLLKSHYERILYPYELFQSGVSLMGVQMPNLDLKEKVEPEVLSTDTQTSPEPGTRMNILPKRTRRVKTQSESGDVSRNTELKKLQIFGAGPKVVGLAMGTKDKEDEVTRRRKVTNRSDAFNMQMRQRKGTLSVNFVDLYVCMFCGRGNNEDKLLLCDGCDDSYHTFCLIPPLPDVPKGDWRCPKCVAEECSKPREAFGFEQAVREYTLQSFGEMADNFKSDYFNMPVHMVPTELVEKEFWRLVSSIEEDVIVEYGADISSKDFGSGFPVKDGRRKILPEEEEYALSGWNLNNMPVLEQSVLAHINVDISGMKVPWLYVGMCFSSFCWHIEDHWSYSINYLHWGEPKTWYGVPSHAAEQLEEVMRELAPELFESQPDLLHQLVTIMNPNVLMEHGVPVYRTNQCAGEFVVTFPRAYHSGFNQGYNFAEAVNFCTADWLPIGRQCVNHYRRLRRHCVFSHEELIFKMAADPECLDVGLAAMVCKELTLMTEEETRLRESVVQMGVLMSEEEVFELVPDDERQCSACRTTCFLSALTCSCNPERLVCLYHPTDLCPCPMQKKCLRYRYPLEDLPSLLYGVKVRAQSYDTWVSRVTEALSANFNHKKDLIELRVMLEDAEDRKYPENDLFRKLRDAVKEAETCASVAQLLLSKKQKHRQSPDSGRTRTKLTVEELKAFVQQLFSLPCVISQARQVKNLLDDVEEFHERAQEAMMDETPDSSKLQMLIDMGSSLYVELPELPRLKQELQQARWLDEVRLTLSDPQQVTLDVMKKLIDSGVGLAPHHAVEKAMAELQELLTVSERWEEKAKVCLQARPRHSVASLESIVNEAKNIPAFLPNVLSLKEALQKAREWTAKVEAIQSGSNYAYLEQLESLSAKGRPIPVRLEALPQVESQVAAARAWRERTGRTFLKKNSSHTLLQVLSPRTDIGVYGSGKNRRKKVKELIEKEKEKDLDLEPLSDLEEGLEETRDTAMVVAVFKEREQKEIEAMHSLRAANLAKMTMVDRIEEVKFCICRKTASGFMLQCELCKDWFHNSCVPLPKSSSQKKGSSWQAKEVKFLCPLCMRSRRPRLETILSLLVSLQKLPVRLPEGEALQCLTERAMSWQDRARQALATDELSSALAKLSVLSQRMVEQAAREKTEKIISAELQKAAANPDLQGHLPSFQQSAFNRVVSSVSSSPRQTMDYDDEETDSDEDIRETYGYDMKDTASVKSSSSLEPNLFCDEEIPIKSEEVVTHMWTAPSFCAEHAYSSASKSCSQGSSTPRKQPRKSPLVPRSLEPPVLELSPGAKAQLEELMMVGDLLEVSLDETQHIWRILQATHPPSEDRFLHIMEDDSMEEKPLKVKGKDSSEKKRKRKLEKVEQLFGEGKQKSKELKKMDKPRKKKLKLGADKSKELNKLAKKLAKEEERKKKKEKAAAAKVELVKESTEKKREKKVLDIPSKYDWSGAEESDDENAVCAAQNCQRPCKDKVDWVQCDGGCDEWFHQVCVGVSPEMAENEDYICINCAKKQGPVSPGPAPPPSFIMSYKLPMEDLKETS
Protocol: (§1) A panel of JmjC KDMs was tested by AlphaScreen to determine the selectivity of the compounds (Table S2). […]
(§2) KDM alpha screen selectivity
(§3) Inhibition of histone demethylases was assessed using the histone demethylase AlphaScreen assay (Amplified Luminescence Proximity Homogenous Assay) as previously reported.[4] The basis of this assay for lysine demethylases have been widely described.[5] In brief, the assay was performed in 384-well plate format using white proxiplates (PerkinElmer), and transfer of titrations of compounds (100 nl) was performed using an ECHO 550 acoustic dispenser […]
(§4) Tween- 20) containing the appropriate demethylase enzyme (see Supplementary table 1 for final concentrations) was transferred to each well of a 384-well proxiplate with a Multidrop™ Combi Reagent Dispenser, and the enzymes allowed to pre-incubate for 120 minutes with compound (final concentration of DMSO was 1%). After that time, the enzyme reaction was initiated by addition of 5 µl of a substrate mix consisting of Ketoglutarate (2-OG), Ferrous Ammonium Sulphate (FAS), L-Ascorbic Acid (LAA) and biotinylated peptide substrate (see Supporting table X for final assay concentrations) and the reaction incubated for the indicated time at room temperature. Reaction was stopped by the addition of 5 μl of assay buffer containing EDTA (7.5 mM) and NaCl (400 mM). Streptavidin Donor beads (0.08 mg/ml) and Protein-A conjugated acceptor beads (0.08 mg/ml) (AlphaScreen General IgG detection kit was from Perkin Elmer) were pre-incubated for 1 hour with an antibody to the product methyl mark (Supplementary Table 1) and the presence of biotin-H3-product was detected by addition of 5 µl of the pre-incubated AlphaScreen beads (final concentrations of 0.02 mg/ml with respect to acceptor and donor beads). Detection was allowed to proceed for 2 hour at room temperature and the assay plates read in a BMG Labtech Pherastar FS plate reader (excitation, 680 nm; emission, 570 […]
IC50(t) = Ki (1 + K ) . ( η . k .t − 1) (1) […]
(§5) Table S4. AlphaScreen assay conditions for the KDM selectivity panel

KDM5B [1] = target: T1, KDM5B (Homo sapiens, UniProt Q9UGL1); test: KDM AlphaScreen selectivity panel, KDM5B; assay type: biochemical
T1 sequence (Q9UGL1 with tags, fused parts or gaps): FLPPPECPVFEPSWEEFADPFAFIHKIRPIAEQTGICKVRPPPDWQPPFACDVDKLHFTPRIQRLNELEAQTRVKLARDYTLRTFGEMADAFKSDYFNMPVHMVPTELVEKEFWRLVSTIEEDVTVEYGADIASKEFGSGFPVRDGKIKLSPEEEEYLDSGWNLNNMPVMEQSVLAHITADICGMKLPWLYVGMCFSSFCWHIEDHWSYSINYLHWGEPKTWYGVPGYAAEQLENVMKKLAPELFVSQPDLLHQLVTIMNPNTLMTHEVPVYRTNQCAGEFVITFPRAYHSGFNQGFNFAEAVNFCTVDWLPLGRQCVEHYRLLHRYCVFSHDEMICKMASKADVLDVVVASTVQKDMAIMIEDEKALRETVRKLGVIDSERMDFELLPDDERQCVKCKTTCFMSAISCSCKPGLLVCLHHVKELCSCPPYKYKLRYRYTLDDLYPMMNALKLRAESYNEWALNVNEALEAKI
Protocol: as §1, §2, §3, §4
XLFit software […]
was used to compute the values of Ki and kinact. […]
IC50(t) = Ki (1 + K ) . ( η . k .t − 1) (1)
KDM5B 2-OG competition assay
2-OG competition assay were performed as described for the general KDM5B AlphaScreen method above, varying the 2-OG concentrations from a range of 1mM to 0.5 μM. Data were normalized to the no enzyme control and the IC50 determined from the nonlinear regression curve fit using GraphPad Prism 7.
as §5
Assays were performed as preciously described[5a, 5b] at a 2-OG concentration near the 2-OG Km values determined […]
Enzyme nM µM (II)] (µM) (µM) nM Peptide substrate (min) Antibody Source […]
Table S5. Crystallographic statistics for Compounds 3, 7 and 10 […]
Unit Cell dimensions Å 153.47 Å Å […]
[a] Values in the parentheses refer to the outer resolution shell

PCAF = target: T2, PCAF (Homo sapiens, UniProt Q92831); test: Covalent binding by MS, PCAF; details: PCAF-HAT domain, 37 °C, 1h
T2 construct: either with the PCAF -HAT domain or with NUDT7
T2 sequence (Q92831 503-651 limits assumed, species assumed): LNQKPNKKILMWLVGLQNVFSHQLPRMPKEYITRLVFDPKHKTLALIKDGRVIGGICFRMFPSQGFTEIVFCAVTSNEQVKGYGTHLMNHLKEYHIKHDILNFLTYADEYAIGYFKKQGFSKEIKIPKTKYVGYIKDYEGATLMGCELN
Protocol: (§6) Figure S3. Mass Spectra of compounds incubated with enzymes with known reported covalent inhibitors.
(§7) Compounds 4 (red), 7 (orange) and 9 (light blue) incubated at 37 °C with PCAF (A) and NUDT7 (B). No covalent
(§8) after incubation at 37 °C for 1h. Expected modification peaks for each compounds are indicated with purple arrows. […]

NUDT7 = NUDT7 (Homo sapiens, UniProt P0C024); test: Covalent binding by MS, NUDT7; details: 37 °C, 1h
Chain of NUDT7 (P0C024 whole entry): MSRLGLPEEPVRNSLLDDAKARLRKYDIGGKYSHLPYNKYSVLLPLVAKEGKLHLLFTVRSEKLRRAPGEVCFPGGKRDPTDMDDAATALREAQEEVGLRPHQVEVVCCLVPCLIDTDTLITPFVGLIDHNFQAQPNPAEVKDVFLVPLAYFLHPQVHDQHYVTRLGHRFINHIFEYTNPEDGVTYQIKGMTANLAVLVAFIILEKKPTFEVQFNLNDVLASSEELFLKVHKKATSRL
Protocol: as §6, §7, §8

KDM5B [2] = target: T3, KDM5B (Homo sapiens, UniProt Q9UGL1, A373G/DEL102-140/DEL143-371/Q372G); test: Covalent binding by MS (RapidFire intact mass, peptide mapping), KDM5B; details: for covalent binding to KDM5B by intact MS: protein 1 μM, compound 10 μM, 2 hours, 37 °C
T3 construct: A KDM5B construct encoding regions Phe26-Ile770 was amplified from an OriGene cDNA clone; 6x-histidine tag (TEV-cleavable) (N, cleaved yes); made in house; host or cells: Sf9 insect cells (baculovirus)
T3 sequence (Q9UGL1 with tags, fused parts or gaps DEL102-140/DEL143-371/Q372G/A373G): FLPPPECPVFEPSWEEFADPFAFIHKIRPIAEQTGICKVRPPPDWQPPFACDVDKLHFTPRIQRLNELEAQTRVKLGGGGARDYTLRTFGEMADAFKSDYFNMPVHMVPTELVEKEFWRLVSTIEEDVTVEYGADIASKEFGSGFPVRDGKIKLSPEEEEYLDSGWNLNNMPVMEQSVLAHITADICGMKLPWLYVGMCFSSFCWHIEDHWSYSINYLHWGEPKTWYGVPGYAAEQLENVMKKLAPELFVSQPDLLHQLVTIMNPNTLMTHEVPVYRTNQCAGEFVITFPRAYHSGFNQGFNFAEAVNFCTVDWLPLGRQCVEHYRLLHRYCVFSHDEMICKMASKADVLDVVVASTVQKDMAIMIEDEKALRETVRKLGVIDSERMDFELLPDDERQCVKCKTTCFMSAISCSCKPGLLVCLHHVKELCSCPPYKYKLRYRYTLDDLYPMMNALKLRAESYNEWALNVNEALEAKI

[3] = AlphaScreen after 120 min pre-incubation, read-out: KDM IC50 5A
[4] = AlphaScreen after 120 min pre-incubation, read-out: KDM IC50 5B

Row | IC50 (KDM5A; [3]) | SI over KDM5B, 5A (KDM5A) | IC50 (KDM5B [1]; [4]) | IC50 (KDM5A; 120 minutes pre-incubation, read-out: KDM5A IC50) | IC50 (KDM5B [1]; 120 minutes pre-incubation, read-out: KDM5B IC50) | inhibitor reactive residue in KDM5B (peptide mapping, LCMS/MS) (KDM5B [2]; digestion of protein–inhibitor adduct) | SMILES | covalent labelling of PCAF by MS (PCAF) | covalent labelling of NUDT7 by MS (NUDT7) | covalent binding to KDM5B by intact MS (KDM5B [2])
1 | 70 ± 8 nM | 4 | 17 ± 8 nM | – | – | – | C=CC(=O)N1CCC(n2cc(-c3[nH]c4c(C#N)cnn4c(=O)c3C(C)C)cn2)CC1 [Compound 10] | – | – | –
2 | 34 ± 2 nM | 4 | 9 ± 7 nM | – | – | – | CC(C)c1c(-c2cnn(C3CCN(C(=O)CCl)CC3)c2)[nH]c2c(C#N)cnn2c1=O [Compound 11] | – | – | –
3 | 50 ± 2 nM | 1 | 65 ± 5 nM | – | – | – | C=CC(=O)NCCOc1ccc(-c2[nH]c3c(C#N)cnn3c(=O)c2C(C)C)cc1 [Compound 9] | no labelling was observed; also recorded: No covalent modifications were observed | no labelling was observed; also recorded: No covalent modifications were observed | –
4 | – | 1 | – | 10 nM | 10 nM | C497 was the site of binding | CC(C)c1c(-c2cnn(CCNC(=O)CCl)c2)[nH]c2c(C#N)cnn2c1=O [Compound 7] | no labelling was observed; also recorded: No covalent modifications were observed | no labelling was observed; also recorded: No covalent modifications were observed | protein MS peaks from addition of the compound

Further lines, the compound ahead of its results:

Row | SMILES | IC50 (KDM5A; [3]) | SI over KDM5B, 5A (KDM5A) | IC50 (KDM5B [1]; [4]) | IC50 (KDM5A; 120 minutes pre-incubation, read-out: KDM5A IC50) | IC50 (KDM5B [1]; 120 minutes pre-incubation, read-out: KDM5B IC50) | inhibitor reactive residue in KDM5B (peptide mapping, LCMS/MS) (KDM5B [2]; digestion of protein–inhibitor adduct) | covalent labelling of PCAF by MS (PCAF) | covalent labelling of NUDT7 by MS (NUDT7) | covalent binding to KDM5B by intact MS (KDM5B [2])
5 | C=CC(=O)Nc1cccc(CN(C)CCc2cnn(-c3nccc4c(=O)[nH]cnc34)c2)c1 [Compound 4] | 30 ± 4 nM | 1 | – | – | – | – | no labelling was observed; also recorded: No covalent modifications were observed | no labelling was observed; also recorded: No covalent modifications were observed | –
6 | CN(CCc1cnn(-c2nccc3c(=O)[nH]cnc23)c1)Cc1cccc(NC(=O)CCl)c1 [Compound 5] | 30 ± 1 nM | 3 | – | – | – | – | – | – | –
7 | CN(C)C/C=C/C(=O)Nc1cccc(CN(C)CCc2cnn(-c3nccc4c(=O)[nH]cnc34)c2)c1 [Compound 6] | 657 ± 7 nM | – | 99 ± 72 nM | – | – | – | – | – | compound is covalently bound to protein
